Measurements as given in ChEMBL document CHEMBL1932988, “Synthesis, antimicrobial, anticancer evaluation and QSAR studies of 6-methyl-4-[1-(2-substituted-phenylamino-acetyl)-1H-indol-3-yl]-2-oxo/thioxo-1,2,3,4-tetrahydropyrimidine-5-carboxylic acid ethyl esters” (Eur J Med Chem, 2012).
≈ marks a conversion by molar mass, not a printed value.

Experiments:
Staphylococcus aureus [1] = assay: Ratio of MIC to MBC for Staphylococcus aureus MTCC 2901; assay type: functional
Bacillus subtilis [2] = assay: Antibacterial activity against Bacillus subtilis MTCC 2063 after 24 hrs by tube dilution method; assay type: functional
Escherichia coli [3] = assay: Antibacterial activity against Escherichia coli MTCC 1652 after 24 hrs by tube dilution method; assay type: functional
MCF7 = assay: cells; conditions: Homo sapiens, MCF7, 72 h
Description: Cytotoxicity against human MCF7 cells after 72 hrs by MTT assay

Aspergillus niger [4] = assay: Ratio of MIC to MFC for Aspergillus niger MTCC 8189; assay type: functional
Escherichia coli [5] = assay: Antibacterial activity against Escherichia coli MTCC 1652 after 24 hrs by tube dilution method hrs followed by subculturing; assay type: functional
Aspergillus niger [6] = assay: Antifungal activity against Aspergillus niger MTCC 8189 after 7 days by tube dilution method hrs followed by subculturing; assay type: functional
Candida albicans [7] = assay: Antifungal activity against Candida albicans MTCC 227 after 48 hrs by tube dilution method; assay type: functional
Escherichia coli [8] = assay: Ratio of MIC to MBC for Escherichia coli MTCC 1652; assay type: functional
Staphylococcus aureus [9] = assay: Antibacterial activity against Staphylococcus aureus MTCC 2901 after 24 hrs by tube dilution method; assay type: functional
Candida albicans [10] = assay: Antifungal activity against Candida albicans MTCC 227 after 48 hrs by tube dilution method hrs followed by subculturing; assay type: functional
Candida albicans [11] = assay: Ratio of MIC to MFC for Candida albicans MTCC 227; assay type: functional
[12] = Partition coefficient, log P of the compound; assay type: physicochemical; conditions: octanol/water
Bacillus subtilis [13] = assay: Ratio of MIC to MBC for Bacillus subtilis MTCC 2063; assay type: functional
Staphylococcus aureus [14] = assay: Antibacterial activity against Staphylococcus aureus MTCC 2901 after 24 hrs followed by subculturing; assay type: functional
Aspergillus niger [15] = assay: Antifungal activity against Aspergillus niger MTCC 8189 after 7 days by tube dilution method; assay type: functional
Bacillus subtilis [16] = assay: Antibacterial activity against Bacillus subtilis MTCC 2063 after 24 hrs by tube dilution method hrs followed by subculturing; assay type: functional

Structure (SMILES)	Ratio (Staphylococcus aureus [1])	-logMIC (Bacillus subtilis [2])	-logMIC (Escherichia coli [3])	IC50 (MCF7)	Ratio (Aspergillus niger [4])	MBC (Escherichia coli [5])	MFC (Aspergillus niger [6])	-logMIC (Candida albicans [7])	Ratio (Escherichia coli [8])	-logMIC (Staphylococcus aureus [9])	MFC (Candida albicans [10])	Ratio (Candida albicans [11])	logP [12]	Ratio (Bacillus subtilis [13])	MBC (Staphylococcus aureus [14])	-logMIC (Aspergillus niger [15])	MBC (Bacillus subtilis [16])
CCOC(=O)C1=C(C)NC(=S)NC1c1cn(C(=O)CNc2ccccc2N)c2ccccc12 (stereo unspecified)	3	1.57	2.17	100 µg/mL (≈ 216 µM)	3	0.05 uM/ml	0.11 uM/ml	1.57	3	1.87	>0.11 uM/ml	3	2.14	3	0.11 uM/ml	1.57	>0.11 uM/ml
CCOC(=O)C1=C(C)NC(=S)NC1c1cn(C(=O)CNc2ccccc2Cl)c2ccccc12 (stereo unspecified)	3	1.29	1.59	–	3	>0.1 uM/ml	>0.1 uM/ml	1.59	3	1.29	>0.1 uM/ml	3	3.44	3	>0.1 uM/ml	1.59	>0.1 uM/ml
CCOC(=O)C1=C(C)NC(=O)NC1c1cn(C(=O)CNc2cccc([N+](=O)[O-])c2)c2ccccc12 (stereo unspecified)	3	1.58	1.88	–	3	0.1 uM/ml	>0.1 uM/ml	1.58	3	1.88	>0.1 uM/ml	3	1.48	3	0.1 uM/ml	1.58	>0.1 uM/ml
CCOC(=O)C1=C(C)NC(=S)NC1c1cn(C(=O)CNc2ccc(Cl)cc2)c2ccccc12 (stereo unspecified)	3	1.59	2.19	80 µg/mL (≈ 166 µM)	3	0.05 uM/ml	>0.1 uM/ml	1.59	3	1.59	>0.1 uM/ml	3	3.44	3	>0.1 uM/ml	1.59	>0.1 uM/ml
